Test results as given in US4891370A, “Cephalosporin derivatives as anti-inflammatory agents” (Merck & Co., Inc., priority 1981, dated 1990).

Biological target: T1, Human Polymorphonuclear Leukocyte Elastase (Homo sapiens, UniProt P08246)
T1 construct: Crude extract of human polymorphonuclear leukocytes (PMN) containing elastase activity; endogenous in cells; host or cells: human polymorphonuclear leukocytes (crude extract)
T1 sequence (P08246 30-267): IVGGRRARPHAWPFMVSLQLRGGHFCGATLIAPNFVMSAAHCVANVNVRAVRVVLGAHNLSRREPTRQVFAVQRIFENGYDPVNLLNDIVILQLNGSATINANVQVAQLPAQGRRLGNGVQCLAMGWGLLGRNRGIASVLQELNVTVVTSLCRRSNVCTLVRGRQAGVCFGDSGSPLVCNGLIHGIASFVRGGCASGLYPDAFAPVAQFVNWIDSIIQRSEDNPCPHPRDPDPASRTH
Experiment: Enzyme assay for inhibition of human PMN elastase via hydrolysis of Boc-AAPAN
Format: biochemical
Conditions: % decrease in ΔOD/min at 410 mμ within 2 minutes vs control, crude PMN extract; for inhibition at 50 µg/mL: Conc. of compound 50 μg/ml
Procedure: Protocol--Enzyme Assays for the Inhibition of Human Polymorphonuclear Leukocyte Elastase Via Hydrolysis of N-t-Boc-alanyl-alanyl-prolylanaline-pnitroanilide Reagents:
0.05M TES (N-tris[hydroxymethyl]methyl-2-amino-ethanesulfonic acid) Buffer, pH 7.5.
0.2 mM N-t-Boc-alanyl-alanyl-Prolyl-Alanine-p-nitroanilide (Boc-AAPAN).
To prepare substrate, the solid (m.w. 550) was first dissolved in 10.0 ml DMSO. Buffer at pH 7.5 was then added to a final volume of 100 ml.
Crude extract of human polymorphonuclear leukocytes (PMN) containing elastase activity.
Inhibitors (cephalosporins) to be tested dissolved in DMSO just before use.
To 1.0 ml of 0.2 mM Boc-AAPAN in a cuvette, 0.01-0.1 ml of DMSO with or without inhibitor was added. After mixing, a measurement was taken at 410 mμ to detect any spontaneous hydrolysis due to presence of test compound. 0.05 Milliliters of PMN extract was then added and the ΔOD/min at 410 mμ was measured and recorded. Beckman model 35 spectrophotometer was used.
The elastase activity in the crude PMN extract may vary from one preparation to another. A control of each new batch is run, and the volume added in the assay procedure is adjusted according to activity.

SMILES | inhibition at 50 µg/mL [%] | inhibition at 5 µg/mL (Conc. of compound 5 μg/ml) [%] | inhibition at 10 µg/mL (Conc. of compound 10 μg/ml) [%] | inhibition at 25 µg/mL (Conc. of compound 25 μg/ml) [%]
C=CCCOC(=O)C1=C(COC(C)=O)CSC2C(NC(=O)Cc3cccs3)C(=O)N12 (centres unmarked) | 56 | – | – | –
C=CCCOC(=O)C1=C(COC(N)=O)CSC2N1C(=O)C2(NC(=O)Cc1cccs1)OC (centres unmarked) | 50 | – | – | –

Next, values leading:

inhibition at 50 µg/mL [%] | inhibition at 5 µg/mL (Conc. of compound 5 μg/ml) [%] | inhibition at 10 µg/mL (Conc. of compound 10 μg/ml) [%] | inhibition at 25 µg/mL (Conc. of compound 25 μg/ml) [%] | SMILES
37 | – | – | – | COC1(NC(=O)Cc2cccs2)C(=O)N2C(C(=O)OCC(=O)COC(=O)C(C)(C)C)=C(COC(N)=O)CSC21 (centres unmarked)
41 | – | – | – | COC1(NC(=O)CSCC#N)C(=O)N2C(C(=O)OC3OC(=O)c4ccccc43)=C(CSc3nnnn3C)CSC21 (centres unmarked)
81 | 41 | 53 | 78 | CO[C@@]1(NC(=O)CSCC#N)C(=O)N2C(C(=O)OCOC(=O)C(C)(C)C)=C(CSc3nnnn3C)CSC21 (some centres unmarked)
